In BindingDB's records for patent US20250170122 (Intellikine, 2025):

Assays:
Assay in all cases: Inhibition Assays of p110α/p85α, p110β/p85α, p110δ/p85α, and p110γ
[1] = target: T1, Phosphatidylinositol 4,5-bisphosphate 3-kinase catalytic subunit delta isoform (Homo sapiens, UniProt O00329)
T1 sequence (O00329 whole entry): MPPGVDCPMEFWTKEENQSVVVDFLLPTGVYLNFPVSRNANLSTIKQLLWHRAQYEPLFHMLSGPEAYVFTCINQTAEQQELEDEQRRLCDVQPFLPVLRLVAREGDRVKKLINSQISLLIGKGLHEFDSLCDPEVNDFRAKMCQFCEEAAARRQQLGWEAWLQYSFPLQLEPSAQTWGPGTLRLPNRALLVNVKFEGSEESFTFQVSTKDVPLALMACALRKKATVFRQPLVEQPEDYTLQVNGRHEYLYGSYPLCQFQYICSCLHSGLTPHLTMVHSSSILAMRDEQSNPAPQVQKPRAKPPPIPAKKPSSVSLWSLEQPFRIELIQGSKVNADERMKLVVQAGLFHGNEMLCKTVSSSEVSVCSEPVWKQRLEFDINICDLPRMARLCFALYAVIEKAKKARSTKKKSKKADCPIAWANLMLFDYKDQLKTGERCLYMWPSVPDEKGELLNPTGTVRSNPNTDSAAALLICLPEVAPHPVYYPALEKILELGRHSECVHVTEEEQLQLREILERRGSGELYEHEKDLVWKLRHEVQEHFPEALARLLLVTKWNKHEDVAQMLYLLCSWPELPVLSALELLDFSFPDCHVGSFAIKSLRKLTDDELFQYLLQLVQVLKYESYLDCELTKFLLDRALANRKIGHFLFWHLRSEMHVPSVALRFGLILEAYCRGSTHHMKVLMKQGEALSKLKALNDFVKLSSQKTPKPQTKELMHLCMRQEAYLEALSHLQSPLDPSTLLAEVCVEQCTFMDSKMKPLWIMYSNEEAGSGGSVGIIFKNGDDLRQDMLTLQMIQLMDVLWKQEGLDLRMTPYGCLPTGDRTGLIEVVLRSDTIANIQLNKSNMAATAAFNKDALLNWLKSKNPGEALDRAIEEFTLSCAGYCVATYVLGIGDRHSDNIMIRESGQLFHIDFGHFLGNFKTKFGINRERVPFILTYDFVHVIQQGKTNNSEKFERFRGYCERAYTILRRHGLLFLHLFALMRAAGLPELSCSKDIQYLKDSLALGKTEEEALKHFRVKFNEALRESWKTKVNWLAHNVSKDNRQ
Protocol: (§1) Briefly, the assay is a time resolved FRET assay that indirectly measures PIP3 product formed by the activity of a PI3-K. The kinase reaction is performed in a microtitre plate (e.g., a 384 well microtitre plate). The total reaction volume is approximately 20 ul per well. In the first step, each well receives 2 ul of test compound in 20% dimethylsulphoxide resulting in a 2% DMSO final concentration. Next, approximately 14.5 ul of a kinase/PIP2 mixture (diluted in 1× reaction buffer) is added per well for a final concentration of 0.25-0.3 ug/ml kinase and 10 uM PIP2. […] To start the reaction, 3.5 ul of ATP (diluted in 1× reaction buffer) is added per well for a final concentration of 10 uM ATP. The plate is sealed and incubated for 1 hour at room temperature. The reaction is stopped by adding 5 ul of Stop Solution per well and then 5 ul of Detection Mix is added per well. The plate is sealed, incubated for 1 hour at room temperature, and then read on an appropriate plate reader. Data is analyzed and IC50s are generated using GraphPad Prism 5.

[2] = target: T2, Phosphatidylinositol 4,5-bisphosphate 3-kinase catalytic subunit gamma isoform (Homo sapiens, UniProt P48736)
T2 construct: gene PIK3CG
Protocol: as §1

[3] = target: Phosphatidylinositol 4,5-bisphosphate 3-kinase catalytic subunit alpha isoform (Homo sapiens, UniProt P42336)
Protocol: as §1

[4] = target: Phosphatidylinositol 4,5-bisphosphate 3-kinase catalytic subunit beta isoform (Homo sapiens, UniProt P42338)
Chain of Phosphatidylinositol 4,5-bisphosphate 3-kinase catalytic subunit beta isoform (P42338 whole entry, canonical isoform): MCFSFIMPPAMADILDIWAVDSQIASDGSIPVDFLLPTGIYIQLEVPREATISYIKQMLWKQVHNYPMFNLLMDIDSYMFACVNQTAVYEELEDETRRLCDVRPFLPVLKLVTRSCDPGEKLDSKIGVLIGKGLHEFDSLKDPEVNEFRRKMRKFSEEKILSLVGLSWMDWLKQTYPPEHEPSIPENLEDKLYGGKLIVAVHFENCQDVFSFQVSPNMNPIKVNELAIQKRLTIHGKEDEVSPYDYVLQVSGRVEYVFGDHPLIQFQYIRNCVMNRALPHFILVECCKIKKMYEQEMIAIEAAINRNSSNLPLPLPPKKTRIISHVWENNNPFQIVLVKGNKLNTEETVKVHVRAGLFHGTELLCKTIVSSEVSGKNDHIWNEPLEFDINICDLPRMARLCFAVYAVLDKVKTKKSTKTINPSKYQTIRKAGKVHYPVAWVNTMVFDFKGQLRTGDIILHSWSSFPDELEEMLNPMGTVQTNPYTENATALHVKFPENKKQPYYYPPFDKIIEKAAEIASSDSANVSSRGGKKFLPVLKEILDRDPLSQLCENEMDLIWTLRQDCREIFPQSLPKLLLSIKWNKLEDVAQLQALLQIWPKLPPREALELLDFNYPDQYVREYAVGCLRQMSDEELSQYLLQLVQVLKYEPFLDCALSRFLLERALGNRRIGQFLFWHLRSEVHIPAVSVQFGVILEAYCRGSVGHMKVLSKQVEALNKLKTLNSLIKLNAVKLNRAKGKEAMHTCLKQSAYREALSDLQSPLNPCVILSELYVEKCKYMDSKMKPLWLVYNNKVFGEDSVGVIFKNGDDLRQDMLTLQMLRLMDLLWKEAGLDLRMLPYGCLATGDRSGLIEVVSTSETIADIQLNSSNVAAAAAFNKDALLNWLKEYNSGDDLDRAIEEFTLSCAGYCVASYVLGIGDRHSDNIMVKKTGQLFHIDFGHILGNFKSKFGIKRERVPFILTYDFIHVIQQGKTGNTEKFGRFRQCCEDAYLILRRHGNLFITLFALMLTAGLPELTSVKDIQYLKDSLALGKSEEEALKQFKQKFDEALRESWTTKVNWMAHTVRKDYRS
Protocol: as §1

T2 sequence (P48736 whole entry, looked up, canonical isoform): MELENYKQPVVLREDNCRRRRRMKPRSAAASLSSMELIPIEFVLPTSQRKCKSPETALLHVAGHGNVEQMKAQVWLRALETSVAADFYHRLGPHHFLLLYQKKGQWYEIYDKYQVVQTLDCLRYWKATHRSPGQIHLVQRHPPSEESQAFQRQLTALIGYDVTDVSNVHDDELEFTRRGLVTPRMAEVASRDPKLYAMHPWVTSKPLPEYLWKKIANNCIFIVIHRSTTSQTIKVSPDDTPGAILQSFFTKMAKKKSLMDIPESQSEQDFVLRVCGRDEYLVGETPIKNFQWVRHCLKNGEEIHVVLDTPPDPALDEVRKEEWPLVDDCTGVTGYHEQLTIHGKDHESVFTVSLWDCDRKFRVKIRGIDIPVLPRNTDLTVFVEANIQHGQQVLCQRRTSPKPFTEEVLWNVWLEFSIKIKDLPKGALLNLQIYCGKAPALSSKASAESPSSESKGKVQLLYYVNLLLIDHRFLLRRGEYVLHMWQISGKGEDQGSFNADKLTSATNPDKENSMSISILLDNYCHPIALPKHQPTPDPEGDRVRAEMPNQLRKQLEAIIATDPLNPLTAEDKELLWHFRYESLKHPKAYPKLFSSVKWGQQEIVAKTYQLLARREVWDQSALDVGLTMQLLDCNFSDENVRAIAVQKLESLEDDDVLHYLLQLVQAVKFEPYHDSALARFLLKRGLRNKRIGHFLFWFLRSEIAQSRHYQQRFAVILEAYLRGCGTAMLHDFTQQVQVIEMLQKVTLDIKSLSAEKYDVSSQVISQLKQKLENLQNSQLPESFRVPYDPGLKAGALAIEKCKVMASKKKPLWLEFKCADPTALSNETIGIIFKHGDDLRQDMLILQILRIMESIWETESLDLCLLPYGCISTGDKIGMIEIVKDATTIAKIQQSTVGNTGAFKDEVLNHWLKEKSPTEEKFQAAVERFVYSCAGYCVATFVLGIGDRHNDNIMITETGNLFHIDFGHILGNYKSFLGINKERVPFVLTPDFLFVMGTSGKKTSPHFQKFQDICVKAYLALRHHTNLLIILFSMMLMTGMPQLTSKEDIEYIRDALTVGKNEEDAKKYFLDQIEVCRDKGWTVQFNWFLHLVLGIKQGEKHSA
Chain of Phosphatidylinositol 4,5-bisphosphate 3-kinase catalytic subunit alpha isoform (P42336 whole entry, canonical isoform): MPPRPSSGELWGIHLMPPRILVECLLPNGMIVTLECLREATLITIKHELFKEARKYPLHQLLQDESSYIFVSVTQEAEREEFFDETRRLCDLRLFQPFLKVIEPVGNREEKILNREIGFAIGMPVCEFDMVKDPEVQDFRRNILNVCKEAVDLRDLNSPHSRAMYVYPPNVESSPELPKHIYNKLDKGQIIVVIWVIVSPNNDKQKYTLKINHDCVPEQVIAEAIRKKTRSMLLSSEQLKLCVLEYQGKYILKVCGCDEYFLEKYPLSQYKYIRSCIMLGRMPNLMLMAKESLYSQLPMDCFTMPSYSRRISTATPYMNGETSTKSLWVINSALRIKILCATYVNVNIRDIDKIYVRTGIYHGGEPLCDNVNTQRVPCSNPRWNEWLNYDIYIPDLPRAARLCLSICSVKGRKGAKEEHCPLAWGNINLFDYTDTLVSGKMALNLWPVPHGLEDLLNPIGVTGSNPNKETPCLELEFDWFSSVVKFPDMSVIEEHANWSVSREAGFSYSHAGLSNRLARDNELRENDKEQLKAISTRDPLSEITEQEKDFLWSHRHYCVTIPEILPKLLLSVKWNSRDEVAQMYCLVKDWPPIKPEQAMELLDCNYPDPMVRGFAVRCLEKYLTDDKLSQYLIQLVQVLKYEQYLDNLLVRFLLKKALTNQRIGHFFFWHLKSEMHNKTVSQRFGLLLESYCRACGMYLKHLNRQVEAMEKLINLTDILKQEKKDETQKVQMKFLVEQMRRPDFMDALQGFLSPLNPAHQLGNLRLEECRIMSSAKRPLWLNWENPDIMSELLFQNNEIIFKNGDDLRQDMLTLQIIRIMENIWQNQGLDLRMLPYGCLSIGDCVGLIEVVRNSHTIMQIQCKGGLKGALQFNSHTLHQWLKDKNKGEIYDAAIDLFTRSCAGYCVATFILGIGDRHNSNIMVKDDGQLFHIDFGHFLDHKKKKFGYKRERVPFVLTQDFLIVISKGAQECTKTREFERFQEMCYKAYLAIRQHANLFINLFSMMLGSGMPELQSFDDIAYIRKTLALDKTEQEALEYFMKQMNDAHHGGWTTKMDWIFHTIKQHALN

| IC50 [1] | IC50 [2] | IC50 [3] | IC50 [4] | SMILES |
| --- | --- | --- | --- | --- |
| < 100 nM |  |  |  | C[C@H](Nc1ncnc2[nH]cnc12)c1cc2cccc(F)c2c(=O)n1-c1cccc(F)c1 [US20250170122, Compound 331] |
|  | < 100 nM |  |  | Cc1cccc2cc(C(C)Nc3ncnc4[nH]cnc34)n(-c3ccccc3F)c(=O)c12 (stereo not drawn) [US20250170122, Compound 203] |
| < 100 nM | < 100 nM |  |  | CNc1ncc(C(F)(F)F)c(N[C@@H](C)c2cc3cccc(Cl)c3c(=O)n2-c2ccccc2)n1 [US20250170122, Compound 354] |
|  |  | < 1000 nM |  | [2H]c1nc2c(N[C@@H](C)c3cc4cccc(Cl)c4c(=O)n3C3CC3)ncnc2[nH]1 [US20250170122, Compound 350] |
| < 100 nM | < 100 nM |  |  | C[C@H](Nc1nc(N)ncc1C(F)(F)F)c1cc2cccc(Cl)c2c(=O)n1-c1ccccc1 [US20250170122, Compound 346] |
| < 10000 nM | > 10000 nM |  |  | Cc1ccccc1-n1c(Cn2cnc3c(N)ncnc32)cc2cccc(C)c2c1=O [US20250170122, Compound 5] |
| < 100 nM | < 100 nM |  |  | C[C@H](Nc1ncnc2ccsc12)c1cc2cccc(Cl)c2c(=O)n1-c1ccccc1 [US20250170122, Compound 344] |
| < 10000 nM |  |  |  | CC(C)n1c(Cn2nc(I)c3c(N)ncnc32)cc2ccccc2c1=O [US20250170122, Compound 129] |
| < 100 nM | < 100 nM |  |  | CC(=O)Nc1nc2ccc(-c3nn(Cc4cc5cccc(C)c5c(=O)n4-c4ccccc4)c(C)c3CN)cc2s1 [US20250170122, Compound 177] |
| < 100 nM | < 100 nM |  |  | C[C@H](Nc1ncnc2[nH]cnc12)c1cc2cccc(Cl)c2c(=O)n1-c1cccc(Cl)c1 [US20250170122, Compound 365] |
| < 100 nM |  |  |  | Nc1ncnc2c1c(-c1cn[nH]c1)nn2Cc1cc2cccc(Cl)c2c(=O)n1-c1cccc(F)c1 [US20250170122, Compound 339] |
| < 100 nM | < 100 nM |  |  | Cc1csc2ncnc(N[C@@H](C)c3cc4cccc(Cl)c4c(=O)n3-c3ccccc3)c12 [US20250170122, Compound 352] |
|  | < 100 nM |  |  | C[C@H](Nc1ncnc2ccccc12)c1cc2cccc(Cl)c2c(=O)n1-c1ccccc1 [US20250170122, Compound 342] |
| < 100 nM | < 100 nM |  |  | C[C@H](Nc1ncnc2[nH]cnc12)c1cc2cccc(Cl)c2c(=O)n1-c1cccc(F)c1 [US20250170122, Compound 328] |
| < 100 nM | < 100 nM |  |  | C[C@H](Nc1ncnc2sccc12)c1cc2cccc(Cl)c2c(=O)n1-c1ccccc1 [US20250170122, Compound 343] |
| < 10000 nM | < 1000 nM | > 10000 nM | > 10000 nM | Cc1cccc2cc(Cn3nc(-c4ccc(O)cc4)c4c(N)ncnc43)n(-c3ccccc3F)c(=O)c12 [US20250170122, Compound 46] |
| < 100 nM |  |  |  | C[C@H](Nc1ncnc2[nH]cnc12)c1cc2cccc(Cl)c2c(=O)n1-c1cccc(C(F)(F)F)c1 [US20250170122, Compound 366] |
| < 100 nM | < 100 nM |  |  | C[C@H](Nc1ncnc2[nH]cnc12)c1cc2cccc(F)c2c(=O)n1-c1ccccc1 [US20250170122, Compound 330] |
| < 100 nM | < 100 nM |  |  | Nc1ncnc2c1c(-c1cn[nH]c1)nn2Cc1cc2cccc(Cl)c2c(=O)n1-c1ccccc1 [US20250170122, Compound 338] |
| < 100 nM | < 100 nM |  | < 100 nM | C[C@H](Nc1ncnc2[nH]cnc12)c1cc2cccc(Cl)c2c(=O)n1-c1ccc(F)cc1 [US20250170122, Compound 329] |
|  | < 10000 nM |  |  | Cc1cccc2cc(Cn3nc(-c4cccc(Cl)c4)c4c(N)ncnc43)n(-c3ccccc3F)c(=O)c12 [US20250170122, Compound 38] |
| < 1000 nM | < 1000 nM | > 10000 nM | < 10000 nM | Cc1cccc2cc(Cn3nc(-c4ccc(Cl)c(O)c4)c4c(N)ncnc43)n(C3CCCC3)c(=O)c12 [US20250170122, Compound 71] |
| < 1000 nM | < 10000 nM | > 10000 nM | > 10000 nM | Cc1cccc2cc(Cn3nc(I)c4c(N)ncnc43)n(C3CCCC3)c(=O)c12 [US20250170122, Compound 57] |
| < 100 nM |  |  |  | Nc1ncnc2c1c(-c1cn[nH]c1)nn2Cc1cc2cccc(Cl)c2c(=O)n1-c1ccccc1F [US20250170122, Compound 337] |
| < 100 nM |  |  |  | CC(C)C[C@H](Nc1ncnc2[nH]cnc12)c1cc2cccc(Cl)c2c(=O)n1-c1ccccc1 [US20250170122, Compound 363] |
|  | < 100 nM |  |  | C[C@H](Nc1nc(N)nc2ccccc12)c1cc2cccc(Cl)c2c(=O)n1-c1ccccc1 [US20250170122, Compound 359] |
| < 100 nM | < 100 nM |  |  | Cc1ccccc1-n1c(Cn2nc(-c3cn[nH]c3)c3c(N)ncnc32)cc2cccc(Cl)c2c1=O [US20250170122, Compound 336] |
| < 100 nM |  |  |  | C[C@H](Nc1ncnc2[nH]cnc12)c1cc2ncccc2c(=O)n1-c1ccccc1 [US20250170122, Compound 357] |
|  | < 100 nM |  |  | C[C@H](Nc1ncnc2[nH]cnc12)c1cc2cccc(F)c2c(=O)n1-c1ccc(F)cc1 [US20250170122, Compound 332] |
| < 100 nM |  |  |  | CC(C)[C@H](Nc1ncnc2[nH]cnc12)c1cc2cccc(Cl)c2c(=O)n1-c1ccccc1 [US20250170122, Compound 364] |
